Assay results from patent US8853217B2, “Compounds useful as inhibitors of ATR kinase” (Vertex Pharmaceuticals Incorporated, priority 2011, dated 2014).

Columns and labels:
intracellular ATR = target: T1, intracellular ATR (Homo sapiens, UniProt Q13535); assay: Cellular ATR Inhibition Assay (phosphorylated H2AX immunofluorescence in hydroxyurea treated HT29 cells); type: cell-based; conditions: 2 mM hydroxyurea, phosphorylated H2AX Ser139
T1 construct: endogenous in cells; host or cells: HT29
Procedure: Compounds can be screened for their ability to inhibit intracellular ATR using an immunofluorescence microscopy assay to detect phosphorylation of the ATR substrate histone H2AX in hydroxyurea treated cells. HT29 cells are plated at 14,000 cells per well in 96-well black imaging plates (BD 353219) in McCoy's 5A media (Sigma M8403) supplemented with 10% foetal bovine serum (JRH Biosciences 12003), Penicillin/Streptomycin solution diluted 1:100 (Sigma P7539), and 2 mM L-glumtamine (Sigma G7513), and allowed to adhere overnight at 37° C. in 5% CO2. Compounds are then added to the cell media from a final concentration of 25 μM in 3-fold serial dilutions and the cells are incubated at 37° C. in 5% CO2. […]
Cells are imaged for Alexa Fluor 488 and Hoechst intensity using the BD Pathway 855 Bioimager and Attovision software (BD Biosciences, Version 1.6/855) to quantify phosphorylated H2AX Ser139 and DNA staining, respectively. The percentage of phosphorylated H2AX-positive nuclei in a montage of 9 images at 20× magnification is then calculated for each well using BD Image Data Explorer software (BD Biosciences Version 2.2.15). […] The percentage of H2AX positive nuclei is finally plotted against concentration for each compound and IC50s for intracellular ATR inhibition are determined using Prism software (GraphPad Prism version 3.0cx for Macintosh, GraphPad Software, San Diego Calif., USA).

full-length ATR = target: T2, full-length ATR (Homo sapiens, UniProt Q13535); assay: ATR Inhibition Assay (radioactive-phosphate incorporation); type: biochemical; conditions: Ki(app); 10 μM ATP, 5 nM full-length ATR, 25° C.
T2 construct: Assays were carried out at 25° C. in the presence of 5 nM full-length ATR
T2 sequence (Q13535 whole entry): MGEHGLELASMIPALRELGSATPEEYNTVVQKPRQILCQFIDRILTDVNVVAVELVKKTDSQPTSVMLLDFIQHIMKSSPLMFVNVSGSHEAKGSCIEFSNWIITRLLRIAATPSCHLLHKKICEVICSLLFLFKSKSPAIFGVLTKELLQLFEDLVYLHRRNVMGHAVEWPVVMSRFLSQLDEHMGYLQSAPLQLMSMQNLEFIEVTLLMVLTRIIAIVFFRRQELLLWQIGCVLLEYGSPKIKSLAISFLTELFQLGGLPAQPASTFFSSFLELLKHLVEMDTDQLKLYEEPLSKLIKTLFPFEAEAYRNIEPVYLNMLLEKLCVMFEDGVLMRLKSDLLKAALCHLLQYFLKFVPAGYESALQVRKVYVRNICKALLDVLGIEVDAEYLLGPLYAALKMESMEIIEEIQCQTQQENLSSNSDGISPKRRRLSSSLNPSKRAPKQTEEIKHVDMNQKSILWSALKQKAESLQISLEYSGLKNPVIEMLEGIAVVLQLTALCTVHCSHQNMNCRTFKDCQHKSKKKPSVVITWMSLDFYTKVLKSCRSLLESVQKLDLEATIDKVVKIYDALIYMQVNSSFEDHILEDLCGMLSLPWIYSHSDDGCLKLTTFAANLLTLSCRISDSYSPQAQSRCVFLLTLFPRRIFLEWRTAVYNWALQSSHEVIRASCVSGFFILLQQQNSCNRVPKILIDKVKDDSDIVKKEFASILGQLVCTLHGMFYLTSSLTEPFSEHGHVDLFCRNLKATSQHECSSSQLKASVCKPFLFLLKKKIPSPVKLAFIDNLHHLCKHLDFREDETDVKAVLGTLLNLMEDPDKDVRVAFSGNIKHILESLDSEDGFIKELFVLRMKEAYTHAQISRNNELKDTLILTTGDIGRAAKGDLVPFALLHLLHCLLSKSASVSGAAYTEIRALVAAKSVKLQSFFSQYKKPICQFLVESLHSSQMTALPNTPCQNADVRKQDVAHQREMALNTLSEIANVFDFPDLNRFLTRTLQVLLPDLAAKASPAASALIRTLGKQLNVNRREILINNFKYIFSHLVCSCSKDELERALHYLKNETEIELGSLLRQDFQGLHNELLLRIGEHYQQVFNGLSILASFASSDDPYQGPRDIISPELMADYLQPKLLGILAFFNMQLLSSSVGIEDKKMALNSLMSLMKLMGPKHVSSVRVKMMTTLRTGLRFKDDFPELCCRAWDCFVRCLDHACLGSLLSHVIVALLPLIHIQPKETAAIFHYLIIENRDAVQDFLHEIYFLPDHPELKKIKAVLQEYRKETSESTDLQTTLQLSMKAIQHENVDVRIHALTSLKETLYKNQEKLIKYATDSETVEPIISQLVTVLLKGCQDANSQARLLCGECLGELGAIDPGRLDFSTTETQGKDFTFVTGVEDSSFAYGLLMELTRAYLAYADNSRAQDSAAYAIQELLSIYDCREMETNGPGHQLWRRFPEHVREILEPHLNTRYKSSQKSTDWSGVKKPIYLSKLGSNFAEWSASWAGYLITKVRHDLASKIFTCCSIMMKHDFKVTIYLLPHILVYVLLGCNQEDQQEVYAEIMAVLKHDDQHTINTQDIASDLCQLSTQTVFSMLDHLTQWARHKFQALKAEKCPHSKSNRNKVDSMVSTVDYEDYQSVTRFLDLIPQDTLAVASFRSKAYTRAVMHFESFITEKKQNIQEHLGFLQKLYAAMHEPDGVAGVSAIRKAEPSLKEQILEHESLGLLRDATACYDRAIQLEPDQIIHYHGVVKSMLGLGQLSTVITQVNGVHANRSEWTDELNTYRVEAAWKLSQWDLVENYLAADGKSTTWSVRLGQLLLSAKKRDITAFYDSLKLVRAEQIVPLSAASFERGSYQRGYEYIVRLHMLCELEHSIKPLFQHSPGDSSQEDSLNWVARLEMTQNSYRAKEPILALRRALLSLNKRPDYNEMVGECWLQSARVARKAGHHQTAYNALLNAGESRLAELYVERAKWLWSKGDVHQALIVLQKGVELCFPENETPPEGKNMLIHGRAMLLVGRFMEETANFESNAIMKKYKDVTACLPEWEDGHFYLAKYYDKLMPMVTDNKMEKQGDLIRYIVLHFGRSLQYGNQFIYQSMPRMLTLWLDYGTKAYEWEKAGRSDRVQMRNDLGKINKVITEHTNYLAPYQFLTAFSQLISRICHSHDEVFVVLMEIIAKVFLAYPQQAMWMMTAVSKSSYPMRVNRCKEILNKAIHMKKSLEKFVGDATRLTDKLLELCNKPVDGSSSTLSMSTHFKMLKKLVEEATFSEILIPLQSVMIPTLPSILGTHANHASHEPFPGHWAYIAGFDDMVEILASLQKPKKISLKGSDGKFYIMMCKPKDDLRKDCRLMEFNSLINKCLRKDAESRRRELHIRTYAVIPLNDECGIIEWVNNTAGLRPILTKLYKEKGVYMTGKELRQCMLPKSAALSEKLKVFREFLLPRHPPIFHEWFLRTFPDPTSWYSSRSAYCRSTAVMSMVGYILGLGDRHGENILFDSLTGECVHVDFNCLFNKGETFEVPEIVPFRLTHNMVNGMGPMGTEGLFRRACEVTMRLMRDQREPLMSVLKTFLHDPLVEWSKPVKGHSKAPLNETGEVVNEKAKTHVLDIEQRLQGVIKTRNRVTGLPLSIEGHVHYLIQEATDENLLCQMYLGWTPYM
Procedure: Compounds were screened for their ability to inhibit ATR kinase using a radioactive-phosphate incorporation assay. Assays were carried out in a mixture of 50 mM Tris/HCl (pH 7.5), 10 mM MgCl2 and 1 mM DTT. Final substrate concentrations were 10 μM [γ-33P]ATP (3 mCi 33P ATP/mmol ATP, Perkin Elmer) and 800 μM target peptide (ASELPASQPQPFSAKKK (SEQ ID NO: 1)).
Assays were carried out at 25° C. in the presence of 5 nM full-length ATR. An assay stock buffer solution was prepared containing all of the reagents listed above, with the exception of ATP and the test compound of interest. 13.5 μL of the stock solution was placed in a 96 well plate followed by addition of 2 μL of DMSO stock containing serial dilutions of the test compound (typically starting from a final concentration of 15 μM with 3-fold serial dilutions) in duplicate (final DMSO concentration 7%). The plate was pre-incubated for 10 minutes at 25° C. and the reaction initiated by addition of 15 μL [γ-33P]ATP (final concentration 10 μM).
The reaction was stopped after […] by the addition of 30 μL 0.1M phosphoric acid containing 2 mM ATP. […]
After removing mean background values for all of the data points, Ki(app) data were calculated from non-linear regression analysis of the initial rate data using the Prism software package (GraphPad Prism version 3.0cx for Macintosh, GraphPad Software, San Diego Calif., USA). […]

[1] = tested on: HCT116 colorectal cancer cells; assay: Single Agent HCT116 Activity, 96 h cell viability (MTS) assay; type: cell-based; conditions: Homo sapiens, HCT-116, read-out: Single agent HT116 IC50
Procedure: Compounds can be screened for single agent activity against HCT116 colorectal cancer cells using a 96 h cell viability (MTS) assay. HCT116 are plated at 470 cells per well in 96-well polystyrene plates (Costar 3596) in 150 μl of McCoy's 5A media (Sigma M8403) supplemented with 10% foetal bovine serum (JRH Biosciences 12003), Penicillin/Streptomycin solution diluted 1:100 (Sigma P7539), and 2 mM L-glumtamine (Sigma G7513), and allowed to adhere overnight at 37° C. in 5% CO2. Compounds are then added to the cell media in 2-fold serial dilutions from a top final concentration of 10 μM as a full matrix of concentrations in a final cell volume of 200 μl, and the cells are then incubated at 37° C. in 5% CO2. After 96 h, 40 μl of MTS reagent (Promega G358a) is added to each well and the cells are incubated for 1 h at 37° C. in 5% CO2. Finally, absorbance is measured at 490 nm using a SpectraMax Plus 384 reader (Molecular Devices) and IC50 values can be calculated (see Table 2 below for data).

[2] = Pharmacokinetics following intravenous dosing; conditions: in vivo
Procedure: Noncompartmental pharmacokinetic parameters were analyzed using Watson Bioanalytical LIMS (Version 7.4; Thermo Fisher Scientific) from either the blood or plasma samples. The following parameters were estimated following intravenous (IV) dosing; terminal elimination half-life (T1/2=ln(2)/λz, where λz is the first order rate constant associated with the terminal (log-linear) portion of the curve.
The area under the curve (AUClast=area under the curve from the time of dosing to the last measurable concentration). The area under the curve extrapolated to infinity (AUC0-∞=AUClast+Clast/λz). The clearance (Cl; Cl=DoseIV/AUC0-∞). The area under the first moment curve (AUMClast=area under the concentration times time versus time curve from the time of dosing to the last measurable concentration). The area under the first moment curve extrapolated to infinity (AUMC0-∞=AUMClast+Clast×t/λz+Clast/λz^2). The mean residence time (MRT=AUMC0-∞/AUC0-∞) and the steady state volume of distribution (Vdss=MRT×Cl) (see Table 2 below for data).
Clearance and volume of distribution can also be obtained using methods known to one of skill in the art (see e.g., Handbook of Essential Pharmacokinetics, Pharmacodynamics and Drug Metabolism for Industrial Scientists, Younggil Kwon, pp 18-28 (Non-compartmental Approach)).

[3] = tested on: HCT116 colorectal cancer cells; assay: Cisplatin Sensitization Assay, 96 h cell viability (MTS); type: cell-based; conditions: concentration of compound required to reduce the IC50 of Cisplatin alone by at least 3-fold; HCT116, 96 h
Procedure: Compounds can be screened for their ability to sensitize HCT116 colorectal cancer cells to Cisplatin using a 96 h cell viability (MTS) assay. […] Compounds and Cisplatin are then both added simultaneously to the cell media in 2-fold serial dilutions from a top final concentration of 10 μM as a full matrix of concentrations in a final cell volume of 200 μl, and the cells are then incubated at 37° C. in 5% CO2. After 96 h, 40 μl of MTS reagent (Promega G358a) is added to each well and the cells are incubated for 1 h at 37° C. in 5% CO2. Finally, absorbance is measured at 490 nm using a SpectraMax Plus 384 reader (Molecular Devices) and the concentration of compound required to reduce the IC50 of Cisplatin alone by at least 3-fold (to 1 decimal place) can be reported.

T1 sequence (Q13535 whole entry): as above
T1 sequence (Q8WXE1 whole entry partner): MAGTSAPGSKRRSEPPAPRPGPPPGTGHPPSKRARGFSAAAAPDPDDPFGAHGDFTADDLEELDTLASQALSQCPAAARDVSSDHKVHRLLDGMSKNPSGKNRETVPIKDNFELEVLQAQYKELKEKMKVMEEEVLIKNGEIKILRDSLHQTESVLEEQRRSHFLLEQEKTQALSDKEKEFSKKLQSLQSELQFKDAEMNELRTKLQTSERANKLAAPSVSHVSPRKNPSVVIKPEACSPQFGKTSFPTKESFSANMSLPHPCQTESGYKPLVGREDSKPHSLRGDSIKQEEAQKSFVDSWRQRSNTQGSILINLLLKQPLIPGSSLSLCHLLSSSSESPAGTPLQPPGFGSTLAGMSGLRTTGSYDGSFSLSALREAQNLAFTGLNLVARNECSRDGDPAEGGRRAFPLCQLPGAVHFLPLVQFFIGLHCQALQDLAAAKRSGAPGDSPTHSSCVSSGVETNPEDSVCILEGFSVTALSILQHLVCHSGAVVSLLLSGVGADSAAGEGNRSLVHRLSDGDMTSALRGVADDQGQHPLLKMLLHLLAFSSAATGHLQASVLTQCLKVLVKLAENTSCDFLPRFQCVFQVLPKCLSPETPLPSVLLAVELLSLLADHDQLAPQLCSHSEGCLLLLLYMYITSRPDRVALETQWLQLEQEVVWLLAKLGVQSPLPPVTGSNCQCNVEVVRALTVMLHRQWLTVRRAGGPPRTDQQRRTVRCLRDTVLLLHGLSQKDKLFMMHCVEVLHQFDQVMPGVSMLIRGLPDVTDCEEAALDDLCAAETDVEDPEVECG

Structure (SMILES): CC(C)S(=O)(=O)c1ccc(-c2cnc(N)c(-c3cc(-c4ccc(CNCC5COC5)cc4)no3)n2)cc1 [I, 5-(4-(isopropylsulfonyl)phenyl)-3-(3-(4-((oxetan-3-ylmethylamino)methyl)phenyl)isoxazol-5-yl)pyrazin-2-amine]
- IC50 (intracellular ATR): 16 nM
- Ki (full-length ATR): 0.21 nM
- IC50 [1]: 62 nM
- clearance ([2]; blood or plasma samples): 6 mL/min/kg
- Vd ([2]; steady state volume of distribution, read-out: Vss): 0.9 L/kg
- Cisplatin sensitization [3]: 39 nM
